Laboratory results as given in patent US8143290B2, “Chemical compounds 572” (AstraZeneca AB, priority 2006, dated 2012).

Molecular target: T1, recombinant human GR (Homo sapiens, UniProt P04150)
T1 construct: purchased Panvera/Invitrogen P2812 (kit P2893)
T1 sequence (P04150 1-777): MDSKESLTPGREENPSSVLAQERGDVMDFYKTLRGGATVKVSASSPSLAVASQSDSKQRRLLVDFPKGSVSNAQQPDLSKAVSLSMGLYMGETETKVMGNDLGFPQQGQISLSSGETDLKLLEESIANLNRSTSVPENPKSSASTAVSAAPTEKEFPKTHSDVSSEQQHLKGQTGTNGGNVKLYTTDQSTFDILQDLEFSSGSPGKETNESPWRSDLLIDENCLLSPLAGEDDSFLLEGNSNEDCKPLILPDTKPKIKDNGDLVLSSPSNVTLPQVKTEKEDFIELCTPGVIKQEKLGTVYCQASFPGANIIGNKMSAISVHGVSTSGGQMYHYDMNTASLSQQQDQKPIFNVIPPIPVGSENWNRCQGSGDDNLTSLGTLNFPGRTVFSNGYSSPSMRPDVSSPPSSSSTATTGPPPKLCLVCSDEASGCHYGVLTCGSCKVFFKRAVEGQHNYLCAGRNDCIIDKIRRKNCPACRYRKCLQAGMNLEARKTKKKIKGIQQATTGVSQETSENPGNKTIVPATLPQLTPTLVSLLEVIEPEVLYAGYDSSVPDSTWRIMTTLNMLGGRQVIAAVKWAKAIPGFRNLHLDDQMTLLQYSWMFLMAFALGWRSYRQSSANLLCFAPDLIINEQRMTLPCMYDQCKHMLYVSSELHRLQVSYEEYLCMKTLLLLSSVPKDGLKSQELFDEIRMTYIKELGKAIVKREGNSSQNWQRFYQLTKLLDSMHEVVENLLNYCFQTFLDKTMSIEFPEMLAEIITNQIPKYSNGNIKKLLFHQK
Test: Human Glucocorticoid Receptor (GR) Assay, fluorescence polarization
Type: binding
Settings: GS Red tracer, incubated 2 h at r.t., XLfit model 205, read-out: GRhuFL_FP_v2 Mean IC50
In short: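 Fluorescence polarization kit assay: recombinant GR and GS Red fluorescent ligand with Stabilizing Peptide and DTT in potassium phosphate/sodium molybdate/EDTA screening buffer. Plates incubated 2 h in the dark at r.t.; DMSO served as 0% and dexamethasone as 100% control.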

Row | Structure (SMILES) | IC50 [nM]
1 | COc1cccc([C@@H](Oc2ccc3c(cnn3-c3ccc(F)cc3)c2)[C@H](C)NC(=O)c2ccccn2)c1 [Example 89, N-((1R,2S)-1-(1-(4-fluorophenyl)-1H-indazol-5-yloxy)-1-(3-methoxyphenyl)propan-2-yl)picolinamide] | 4.4
2 | CCC[C@H](NC(=O)CO)[C@H](Oc1ccc2c(cnn2-c2ccc(F)cc2)c1)c1ccccc1 [Example 91, N-((1R,2S)-1-(1-(4-fluorophenyl)-1H-indazol-5-yloxy)-1-phenylpentan-2-yl)-2-hydroxyacetamide] | 5.2
3 | CCC[C@H](NC(=O)CO)[C@H](Oc1ccc2c(cnn2-c2ccc(F)cc2)c1)c1cccc(OC)c1 [Example 93, N-((1R,2S)-1-(1-(4-fluorophenyl)-1H-indazol-5-yloxy)-1-(3-methoxyphenyl)pentan-2-yl)-2-hydroxyacetamide] | 3.7
4 | CCC[C@H](NC(=O)C(C)(C)C)[C@H](Oc1ccc2c(cnn2-c2ccc(F)cc2)c1)c1cccc(OC)c1 [Example 94, N-((1R,2S)-1-(1-(4-fluorophenyl)-1H-indazol-5-yloxy)-1-(3-methoxyphenyl)pentan-2-yl)pivalamide] | 3.1
5 | CC[C@H](NC(=O)C(C)(C)C)[C@H](Oc1ccc2c(cnn2-c2ccc(F)cc2)c1)c1ccccc1 [Example 96, N-((1R,2S)-1-(1-(4-fluorophenyl)-1H-indazol-5-yloxy)-1-phenylbutan-2-yl)pivalamide] | 3.5
6 | CC[C@H](NC(=O)CO)[C@H](Oc1ccc2c(cnn2-c2ccc(F)cc2)c1)c1cccc(OC)c1 [Example 97, N-((1R,2S)-1-(1-(4-fluorophenyl)-1H-indazol-5-yloxy)-1-(3-methoxyphenyl)butan-2-yl)-2-hydroxyacetamide] | 3.3
7 | C[C@H](NC(=O)NC1CCCC1)[C@H](Oc1ccc2c(cnn2-c2ccc(F)cc2)c1)c1ccccc1 [Example 104] | 3.6
8 | CC(C)[C@@H](C)NC(=O)N[C@@H](C)[C@H](Oc1ccc2c(cnn2-c2ccc(F)cc2)c1)c1ccccc1 [Example 107] | 4
9 | CC(C)C[C@H](NC(=O)C(F)(F)F)[C@H](Oc1ccc2c(cnn2-c2ccc(F)cc2)c1)c1cccc(F)c1 [Example 110, 2,2,2-Trifluoro-N-{(1S)-1-[(R)-(3-Fluorophenyl)-{[1-(4-fluorophenyl)-1H-indazole-5-yl]oxy}methyl}-3-methylbutyl}-acetamide] | 29
10 | COCC(=O)N[C@@H](COC)[C@H](Oc1ccc2c(cnn2-c2ccc(F)cc2)c1)c1cccc(F)c1 [Example 111, N-[(1)-(2R)-(3-Fluorophenyl)-2-{[1-(4-fluorophenyl)-1H-indazole-5-yl]oxy}-1-(methoxymethyl)ethyl]-2-methoxyacetamide] | 15
11 | C[C@H](NC(=O)c1ccco1)[C@H](Oc1ccc2c(cnn2-c2cccnc2)c1)c1ccccc1 [Example 114, N-[(1S,2R)-1-Methyl-2-phenyl-2-{[1-(3-pyridyl)-1H-indazol-5-yl]oxy}ethyl]furan-2-carboxamide] | 3.2
12 | C[C@H](NC(=O)c1ccco1)[C@H](Oc1ccc2c(cnn2-c2ccncc2)c1)c1ccccc1 [Example 115, N-[(1S,2R)-1-Methyl-2-phenyl-2-{[1-(4-pyridyl)-1H-indazol-5-yl]oxy}ethyl]furan-2-carboxamide] | 3.8
13 | C[C@H](NC(=O)C(F)(F)F)[C@H](Oc1ccc2c(cnn2-c2ccc(Cl)nn2)c1)c1ccccc1 [Example 119, N-{2-[1-(6-Chloro-pyridazin-3-yl)-1H-indazol-5-yloxy]-1-methyl-2-phenyl-ethyl}-2,2,2-trifluoro-acetamide] | 3.1
14 | C[C@H](NC(=O)[C@@H]1CCCN1)[C@H](Oc1ccc2c(cnn2-c2ccc(F)cc2)c1)c1ccc2c(c1)OCCO2 [Example 125, (S)-N-((1R,2S)-1-(2,3-dihydrobenzo[b][1,4]dioxin-6-yl)-1-(1-(4-fluorophenyl)-1H-indazol-5-yloxy)propan-2-yl)pyrrolidine-2-carboxamide] | 6.4

The remaining lines, values ahead:

Row | IC50 [nM] | Structure (SMILES)
15 | 3.8 | COc1cccc([C@@H](Oc2ccc3c(cnn3-c3ccc(F)cc3)c2)[C@H](C)NC(=O)c2ccco2)c1 [Example 86, N-((1R,2S)-1-(1-(4-fluorophenyl)-1H-indazol-5-yloxy)-1-(3-methoxyphenyl)propan-2-yl)furan-2-carboxamide]
16 | 3.2 | COc1cccc([C@@H](Oc2ccc3c(cnn3-c3ccc(F)cc3)c2)[C@H](C)NC(=O)c2ccncn2)c1 [Example 88, N-((1R,2S)-1-(1-(4-fluorophenyl)-1H-indazol-5-yloxy)-1-(3-methoxyphenyl)propan-2-yl)pyrimidine-4-carboxamide]
17 | 3.8 | CCC[C@H](NC(=O)C(C)(C)C)[C@H](Oc1ccc2c(cnn2-c2ccc(F)cc2)c1)c1ccccc1 [Example 92, N-((1R,2S)-1-(1-(4-fluorophenyl)-1H-indazol-5-yloxy)-1-phenylpentan-2-yl)pivalamide]
18 | 3.4 | CC[C@H](NC(=O)CO)[C@H](Oc1ccc2c(cnn2-c2ccc(F)cc2)c1)c1ccccc1 [Example 95, N-((1R,2S)-1-(1-(4-fluorophenyl)-1H-indazol-5-yloxy)-1-phenylbutan-2-yl)-2-hydroxyacetamide]
19 | 2.6 | C[C@H](NC(=O)C(F)(F)F)[C@H](Sc1ccc2c(cnn2-c2ccc(F)cc2)c1)c1ccccc1 [Example 103, 2,2,2-trifluoro-N-((1R,2S)-1-(1-(4-fluorophenyl)-1H-indazol-5-ylthio)-1-phenylpropan-2-yl)acetamide]
20 | 3.2 | C[C@H](NC(=O)NCc1ccco1)[C@H](Oc1ccc2c(cnn2-c2ccc(F)cc2)c1)c1ccccc1 [Example 105, 1-{(1S,2R)-2-{[1-(4-Fluorophenyl)-1H-indazole-5-yl]oxy}-1-methyl-2-phenylethyl}-3-(2-furylmethyl)urea]
21 | 3.7 | CCOC(=O)CNC(=O)N[C@@H](C)[C@H](Oc1ccc2c(cnn2-c2ccc(F)cc2)c1)c1ccccc1 [Example 106, Ethyl N-{[(1S,2R)-2-{[1-(4-fluorophenyl)-1H-indazole-5-yl]oxy}-1-methyl-2-phenylethyl]carbamoyl}glycinate]
22 | 4.9 | C[C@H](NC(=S)NCc1ccco1)[C@H](Oc1ccc2c(cnn2-c2ccc(F)cc2)c1)c1ccccc1 [Example 108, 1-{(1S,2R)-2-{[1-(4-Fluorophenyl)-1H-indazole-5-yl]oxy}-1-methyl-2-phenylethyl}-3-(2-furylmethyl)thiourea]
23 | 23 | COCC(=O)N[C@@H](CC(C)C)[C@H](Oc1ccc2c(cnn2-c2ccc(F)cc2)c1)c1cccc(F)c1 [Example 109, N-{(1S)-1-[(R)-(3-Fluorophenyl)-{[1-(4-fluorophenyl)-1H-indazole-5-yl]oxy}methyl]-3-methyl-butyl}-2-methoxyacetamide]
24 | 21 | COC[C@H](NC(=O)c1ccco1)[C@H](Oc1ccc2c(cnn2-c2ccc(F)cc2)c1)c1cccc(F)c1 [Example 112, N-[(1S)-(2R)-(3-Fluorophenyl)-2-{[1-(4-fluorophenyl)-1H-indazol-5-yl]oxy}-1-(methoxymethyl)ethyl]furan-2-carboxamide]
25 | 7.7 | COC(=O)c1ccc(-n2ncc3cc(O[C@H](c4ccccc4)[C@H](C)NC(=O)c4ccco4)ccc32)cc1 [Example 116, Methyl 4-(5-{(1R,2S)-2-[(2-furylcarbonyl)amino]-1-phenylpropoxy}-1H-indazol-1-yl)benzoate]
26 | 2.9 | COCC(=O)N[C@@H](C)[C@H](Oc1ccc2c(cnn2-c2ccccn2)c1)c1ccccc1 [Example 118, 2-Methoxy-N-[1-methyl-2-phenyl-2-(1-pyridin-2-yl-1H-indazol-5-yloxy)-ethyl]acetamide]
27 | 210 | COCC(=O)N[C@@H](C)[C@H](Oc1ccc2c(cnn2-c2ncccn2)c1)c1ccccc1 [Example 120, 2-Methoxy-N-[1-methyl-2-phenyl-2-(1-pyrimidin-2-yl-1H-indazol-5-yloxy)-ethyl]-acetamide]
28 | 2.8 | COc1cccc([C@@H](Oc2ccc3c(cnn3-c3ccc(F)cc3)c2)[C@H](C)NC(=O)CO)c1 [Example 121, N-[(1R,2S)-1-[1-(4-fluorophenyl)indazol-5-yl]oxy-1-(3-methoxyphenyl)propan-2-yl]-2-hydroxy-acetamide]
29 | 4.2 | C[C@H](NC(=O)CO)[C@H](Oc1ccc2c(cnn2-c2ccc(F)cc2)c1)c1ccc2c(c1)OCCO2 [Example 123, N-((1R,2S)-1-(2,3-dihydrobenzo[b][1,4]dioxin-6-yl)-1-(1-(4-fluorophenyl)-1H-indazol-5-yloxy)propan-2-yl)-2-hydroxyacetamide]
30 | 2.7 | C[C@H](NC(=O)C1(C)CC1)[C@H](Oc1ccc2c(cnn2-c2ccc(F)cc2)c1)c1ccc2c(c1)OCCO2 [Example 124, N-((1R,2S)-1-(2,3-dihydrobenzo[b][1,4]dioxin-6-yl)-1-(1-(4-fluorophenyl)-1H-indazol-5-yloxy)propan-2-yl)-1-methylcyclopropanecarboxamide]
